Data on 26 compounds can be found in patent US5314896A, “1,3-substituted cycloalkenes and cycloalkanes as central nervous system agents” (priority 1992, dated 1994).

Each structure is given as a SMILES string. Read-outs that look alike come from different tables or passages of the source.

In test [1] the test system is Locomotor Activity in Mice. The test is described as follows: Inhibition of locomotor activity in mice. The settings on record: for ED50: Mus musculus. In kind it is in vivo. On the procedure: (§1) The compounds of Formula I are valuable dopaminergic agents. […] Thus, the compounds of Formula I were tested for their ability to inhibit locomotor activity in mice and rats, a measure of antipsychotic activity, according to the assay described by J. R. McLean, et al, Pharmacology, Biochemistry and Behavior, Vol. 8, pages 97-99 (1978); for their ability to bind to dopamine receptors as measured by their inhibition of [^3 H]spiroperidol binding in a receptor assay described by D. Grigoriadis and P. Seeman, Journal of Neurochemistry, Vol. 44, pages 1925-1935 (1985); and for their ability to effect dopamine synthesis in rats according to the protocol described by J. R. Walters and R. H. Roth, Naunyn-Schmiedebero's Archives of Pharmacology, Vol. 296, pages 5-14 (1976). The above test methods are incorporated herein by reference. The data in the table show the dopaminergic activity of representative compounds of Formula I.

The next test has as its system Brain Dopamine Synthesis. The test is described as follows: % effects on brain dopamine synthesis in rats. In kind it is in vivo. The settings on record: for change in vivo at 10 mg/kg: Rattus norvegicus. The procedure: as §1
The next test addresses dopamine receptors. The test is described as follows: Inhibition of [^3 H] spiroperidol binding. On the procedure: as §1
Where [2] appears, read: ip, read-out: Inhibition of Locomotor Activity in Mice ED50, mice, IP (Table 1).
[3] abbreviates: ip, read-out: % Effects on Brain Dopamine Synthesis in Rats, rats, 10 mg/kg, IP (Table 1).
Setting [4] is: mice, IP (Table 1), read-out: Inhibition of Locomotor Activity in Mice ED50.
Where [5] appears, read: rats, 10 mg/kg, IP (Table 1), read-out: % Effects on Brain Dopamine Synthesis in Rats.
Where [6] appears, read: ip, read-out: Inhibition of Locomotor Activity in Mice ED50, mice, IP (Table 2).

Take `COc1ccc(C2=CCC[C@@H](CN3CC=C(c4ccccc4)CC3)C2)cc1.Cl` [Example 11, (R)-1,2,3,6-tetrahydro-1-[[3-(4-methoxyphenyl)-3-cyclohexen-1-yl]methyl]-4-phenylpyridine monohydrochloride]: the ED50 in test [1] (setting [2]) came out at 0.37 mg/kg. In addition, in the test with Brain Dopamine Synthesis (setting [3]), the change in vivo at 10 mg/kg was -47%. This compound yielded an IC50 at dopamine receptors (Table 1) of 100 nM.
Turning to `Fc1ccc(C2=CC(CN3CCN(c4ccccn4)CC3)CCC2)cc1` (racemic) [Example 5a, (±)-1-[[3-(4-Fluorophenyl)-2-cyclohexen-1-yl]methyl]-4-(2-pyridinyl)piperazine], the ED50 in test [1] (setting [4]) worked out at 2.2 mg/kg. Also, in the test on Brain Dopamine Synthesis (setting [5]), the change in vivo at 10 mg/kg is -48%. The compound further showed an IC50 on dopamine receptors (Table 1) of 279 nM.
Regarding `C1=C(c2ccccc2)CCN(CC2CCC=C(c3ccccc3)C2)C1` (single isomer, unassigned; (-)) [Example 6a, (-)-1,2,3,6-Tetrahydro-4-phenyl-1-[(3-phenyl-3-cyclohexen-1-yl)methyl]pyridine], the “Inhibition of Locomotor Activity in Mice ED50” value in test [1] (mice, IP (Table 1)) amounted to 5.6 mg/kg. Moreover, in the test on Brain Dopamine Synthesis (rats, 10 mg/kg, IP (Table 1)), the “% Effects on Brain Dopamine Synthesis in Rats” value is reported as -34%. This compound also returned an IC50 at dopamine receptors (Table 1) of 420 nM.
Turning to `Cc1ccc(C2=CCC[C@@H](CN3CC=C(c4ccccc4)CC3)C2)cc1` [Example 9, (R)-1,2,3,6-tetrahydro-1-[[3-(4-methylphenyl)-3-cyclohexen-1-yl]methyl]-4-phenylpyridine], in test [1] (setting [2]), the ED50 amounted to 0.8 mg/kg. Moreover, the change in vivo at 10 mg/kg in the test on Brain Dopamine Synthesis (setting [3]) is -42%. Moreover, at dopamine receptors (Table 1), the IC50 amounted to 184 nM.
On to `C1=C(c2ccccc2)CCN(C[C@@H]2CCC=C(c3cccs3)C2)C1.Cl` [Example 10, (R)-1,2,3,6-tetrahydro-4-phenyl-1-[[3-(2-thienyl)-3-cyclohexen-1-yl]methyl]pyridine monohydrochloride], for which the ED50 in test [1] (setting [2]) came to 1.6 mg/kg. Besides, in the test on Brain Dopamine Synthesis (setting [3]), the change in vivo at 10 mg/kg is -54%. The IC50 on dopamine receptors (Table 1) worked out at 79 nM.
Consider `Fc1ccc(C2=CCC[C@@H](CN3CC=C(c4ccccc4)CC3)C2)cc1` [Example 8, (R)-1-[[3-(4-fluorophenyl)-3-cyclohexen-1-yl]methyl]-1,2,3,6-tetrahydro-4-phenylpyridine], for which, in test [1] (setting [2]), the ED50 amounted to 4 mg/kg. Moreover, in the test on Brain Dopamine Synthesis (setting [3]), the change in vivo at 10 mg/kg is -74%. This compound also showed an IC50 at dopamine receptors (Table 1) of 76 nM.
As to `C1=C(c2ccccc2)CCCC1CN1CC=C(c2ccccc2)CC1` (racemic) [Example 1a, (±)-1,2,3,6-Tetrahydro-4-phenyl-1-[(3-phenyl-2-cyclohexen-1-yl)methyl]pyridine], the ED50 in test [1] (setting [2]) stood at 2.5 mg/kg. Also, in the test on Brain Dopamine Synthesis (setting [3]), the change in vivo at 10 mg/kg was -34%. This compound gave an IC50 at dopamine receptors (Table 1) of 420 nM.
As for `Clc1ccc(C2=C[C@H](CN3CC=C(c4ccccc4)CC3)CCC2)cc1` [Example 7a, (R)-1-[[3-(4-chlorophenyl)-2-cyclohexen-1-yl]methyl]-1,2,3,6-tetrahydro-4-phenylpyridine], the ED50 in test [1] (setting [2]) was found to be 7.5 mg/kg. For the same compound, the IC50 at dopamine receptors (Table 1) was 2320 nM.
Regarding `C1=C(c2ccccc2)CCN(CC2CCC=C(c3cccs3)C2)C1` (racemic) [Example 2, (±)-1,2,3,6-Tetrahydro-4-phenyl-1-[[3-(2-thienyl)-3-cyclohexen-1-yl]methyl]pyridine], the ED50 in test [1] (setting [2]) was found to be 1.8 mg/kg. Further, the change in vivo at 10 mg/kg with Brain Dopamine Synthesis (setting [3]) is -9%. The IC50 on dopamine receptors (Table 1) is 202 nM.
`Fc1ccc(C2=CCCC(CN3CCN(c4ccccn4)CC3)C2)cc1` (racemic) [Example 5, (±)-1-[[3-(4-Fluorophenyl)-3-cyclohexen-1-yl]methyl]-4-(2-pyridinyl)piperazine]: the ED50 in test [1] (setting [2]) came to 1.2 mg/kg. In addition, the change in vivo at 10 mg/kg in the test with Brain Dopamine Synthesis (setting [5]) was -58%. At dopamine receptors (Table 1), this compound came in with an IC50 of 143 nM.
As to `C1=C(c2ccccc2)CCN(C[C@@H]2CCC[C@H](c3ccccc3)C2)C1.Cl` [Example 20, (1R-cis) 1,2,3,6-tetrahydro-4-phenyl-1-[(3-phenylcyclohexyl)methyl]pyridine monohydrochloride], in test [1] (setting [2]), the ED50 amounted to 0.7 mg/kg. Besides, the change in vivo at 10 mg/kg in the test on Brain Dopamine Synthesis (setting [3]) was -100%. For the same compound, the IC50 at dopamine receptors (Table 1) worked out at 71 nM.
Consider `C1=C(c2ccccc2)CCC(N2CC=C(c3ccccc3)CC2)C1` (racemic) [A, (±)-1,2,3,6-tetrahydro-4-phenyl-1-(4-phenyl-3-cyclohexen-1-yl)pyridine, reference compound], for which the ED50 in test [1] (setting [6]) came out at 12.9 mg/kg. On dopamine receptors (Table 2), this compound showed an IC50 of 1080 nM.
As for `CN(C)c1ccc(C2=CCC[C@@H](CN3CC=C(c4ccccc4)CC3)C2)cc1` [Example 16, (R)-4-[5-[(3,6-dihydro-4-phenyl-1(2H)-pyridinyl)methyl]-1-cyclohexen-1-yl]-N,N-dimethylbenzeneamine], the ED50 in test [1] (setting [2]) was 0.2 mg/kg. For the same compound, in the test on Brain Dopamine Synthesis (setting [3]), the change in vivo at 10 mg/kg was -76%. The compound further came in with an IC50 on dopamine receptors (Table 1) of 53 nM.
As to `C1=C(c2ccccc2)CCN(CC2CCC=C(c3ccccc3)C2)C1` (single isomer, unassigned; (+)) [Example 6, (+)-1,2,3,6-Tetrahydro-4-phenyl-1-[(3-phenyl-3-cyclohexen-1-yl)methyl]pyridine], the “Inhibition of Locomotor Activity in Mice ED50” value in test [1] (mice, IP (Table 1)) turned out to be 1.0 mg/kg. The “% Effects on Brain Dopamine Synthesis in Rats” value in the test on Brain Dopamine Synthesis (rats, 10 mg/kg, IP (Table 1)) is -50%. This compound also returned an IC50 at dopamine receptors (Table 1) of 227 nM.
For the compound `C1=C(c2ccsc2)CCC[C@H]1CN1CC=C(c2ccccc2)CC1` [Example 15, (R)-1,2,3,6-tetrahydro-4-phenyl-1-[[3-(3-thienyl)-2-cyclohexen-1-yl]methyl]pyridine], the ED50 in test [1] (setting [2]) was 1.3 mg/kg. This compound also gave an IC50 on dopamine receptors (Table 1) of 251 nM.
For `C1=C(c2ccccc2)CC(CN2CC=C(c3cccs3)CC2)CC1.Cl` (racemic) [Example 24, (±)-1,2,3,6-tetrahydro-1-[(3-phenyl-3-cyclohexen-1-yl)methyl]-4-(2-thienyl)pyridine monohydrochloride] the same measures were 1.5 mg/kg and 170 nM.
`Fc1ccc(C2=CCCC(CN3CC=C(c4ccccc4)CC3)C2)cc1` (racemic) [Example 3, (±)-1-[[3-(4-Fluorophenyl)-3-cyclohexen-1-yl]methyl]-1,2,3,6-tetrahydro-4-phenylpyridine]: in test [1] (setting [2]), the ED50 came out at 4.2 mg/kg. The IC50 at dopamine receptors (Table 1) was found to be 90 nM.
On to `C1=C(c2ccccc2)CCN(C[C@@H]2CCC=C(c3cnc4ccccc4c3)C2)C1` [Example 17, (R)-3-[5-[(3,6-dihydro-4-phenyl-1(2H)-pyridinyl)methyl]-1-cyclohexen-1-yl]quinoline], for which the ED50 in test [1] (setting [2]) is 0.23 mg/kg. Moreover, the change in vivo at 10 mg/kg with Brain Dopamine Synthesis (setting [3]) was -21%. The compound further yielded an IC50 at dopamine receptors (Table 1) of 76 nM.
On to `C1=C(c2ccccc2)CCN(C[C@H]2C=C(c3cccs3)CCC2)C1.Cl` [Example 10a, (R)-1,2,3,6-tetrahydro-4-phenyl-1-[[3-(2-thienyl)-2-cyclohexen-1-yl]methyl]pyridine monohydrochloride], for which, in test [1] (setting [2]), the ED50 turned out to be 1.5 mg/kg. The change in vivo at 10 mg/kg in the test on Brain Dopamine Synthesis (setting [3]) is -58%. The compound further returned an IC50 at dopamine receptors (Table 1) of 110 nM.
Consider `C1=C(c2ccccc2)CC(CN2CCN(c3ccccn3)CC2)C1` (racemic) [Example 25, (±)-1-[(3-phenyl-3-cyclopenten-1-yl)methyl]-4-(2-pyridinyl)piperazine], for which, in test [1] (setting [4]), the ED50 was determined as 2.7 mg/kg. Further, the change in vivo at 10 mg/kg in the test on Brain Dopamine Synthesis (setting [5]) was -45%. Besides, on dopamine receptors (Table 1), the half-inhibitory concentration (IC50) amounted to 190 nM.
As to `Fc1ccc(C2=CC(CN3CC=C(c4ccccc4)CC3)CCC2)cc1` (racemic) [Example 3a, (±)-1-[[3-(4-Fluorophenyl)-2-cyclohexen-1-yl]methyl]-1,2,3,6-tetrahydro-4-phenylpyridine], the ED50 in test [1] (setting [2]) worked out at 2.9 mg/kg. Also, the change in vivo at 10 mg/kg in the test with Brain Dopamine Synthesis (setting [3]) was -41%. Further, the half-inhibitory concentration (IC50) at dopamine receptors (Table 1) turned out to be 1070 nM.
With `C1=C(c2ccccc2)CC(CN2CCN(c3ncccn3)CC2)CC1` (racemic) [Example 23, (±)-2-[4-[[3-phenyl-3-cyclohexen-1-yl)methyl]-1-piperazinyl]pyrimidine], the ED50 in test [1] (setting [4]) was determined as 8.5 mg/kg. For the same compound, on dopamine receptors (Table 1), the IC50 was 354 nM.
Regarding `O=C(N[C@H]1CCC[C@@H](CN2CC=C(c3ccccc3)CC2)C1)c1ccccc1` [Example 19, (1S-cis)-N-[3-[(3,6-dihydro-4-phenyl-1(2H)-pyridinyl)methyl]cyclohexyl]benzamide], the ED50 in test [1] (setting [2]) is 0.15 mg/kg. Also, the change in vivo at 10 mg/kg in the test with Brain Dopamine Synthesis (setting [3]) was -95%. Moreover, at dopamine receptors (Table 1), the IC50 is 34 nM.
On to `Cl.Clc1ccc(C2=CCC[C@@H](CN3CC=C(c4ccccc4)CC3)C2)cc1` [Example 7, (R)-1-[[3-(4-chlorophenyl)-3-cyclohexen-1-yl]methyl]-1,2,3,6-tetrahydro-4-phenylpyridine monohydrochloride], for which, in test [1] (setting [2]), the ED50 came out at 4.4 mg/kg. For the same compound, the change in vivo at 10 mg/kg in the test on Brain Dopamine Synthesis (setting [3]) is -18%.
On to `C1=C(c2cnc3ccccc3c2)CCC[C@H]1CN1CC=C(c2ccccc2)CC1` [Example 17a, (R)-3-[3-[(3,6-dihydro-4-phenyl-1(2H)-pyridinyl)methyl]-1-cyclohexen-1-yl]quinoline], for which the ED50 in test [1] (setting [2]) came out at 1.7 mg/kg. This compound came in with an IC50 on dopamine receptors (Table 1) of 1110 nM.
As to `C1=C(c2ccccc2)CCN(C2CCC=C(c3ccccc3)C2)C1` (racemic) [D, (±)-1,2,3,6-tetrahydro-4-phenyl-1-(3-phenyl)-3-cyclohexen-1-yl)pyridine, reference compound], the ED50 in test [1] (setting [6]) was 30 mg/kg. The same compound displayed an IC50 on dopamine receptors (Table 2) of 9210 nM.
